Results on three compounds are retold here after patent publication EP1644371B1, “PYRAZOLOISOQUINOLINE DERIVATIVES AS KINASE INHIBITORS” (Aventis Pharmaceuticals Inc., priority 2003, dated 2005).

The IC50 is the concentration needed to halve the response being measured.

What all share (format): cell-based
Series [1] has as its system IL1 β-stimulated human peripheral blood lymphocytes. Put plainly: Cytokine release in IL1β-stimulated human peripheral blood lymphocytes (ELISA). As to conditions: Lymphocyte. Here is the method:
The pyrazoloisoquinoline derivatives according to the invention were tested for inhibitory activity against NIK in various in vitro assay systems. In this connection, human peripheral blood lymphocytes were preincubated for 1 h with different concentrations of the compounds and then stimulated for 24 h with LPS or IL1 β. […] The cytotoxicity was measured by way of LDH release using a commercially obtainable test kit and the LD50 for the given compound was determined.
(An ELISA detects its analyte on a solid surface through an enzyme-linked reagent.)

Series [2] relates to human peripheral blood lymphocytes. Put plainly: Cytotoxicity by LDH release. Here is the method:
(§1) The pyrazoloisoquinoline derivatives according to the invention were tested for inhibitory activity against NIK in various in vitro assay systems. In this connection, human peripheral blood lymphocytes were preincubated for 1 h with different concentrations of the compounds and then stimulated for 24 h with LPS or IL1 β. After that, a commercially obtainable ELISA test kit was used to measure the release of TNFα in the culture supernatant, and the IC50 for the given compound was determined. The cytotoxicity was measured by way of LDH release using a commercially obtainable test kit and the LD50 for the given compound was determined.
On the technique in general: Release of lactate dehydrogenase indicates damage to the cell membrane.

Series [3] deals with LPS-stimulated human peripheral blood lymphocytes. The experiment in a line: Cytokine release in LPS-stimulated human peripheral blood lymphocytes (ELISA). The following applies: Lymphocyte. How it is done: as §1
Series [4] relates to LPS-stimulated heparinized whole human blood. The experiment in a line: Release of IL1β, TNFα and IL6 in LPS-stimulated heparinized whole human blood. The following applies: 24 h. How it is done: In another assay, heparinized whole human blood was preincubated for 1 h with different concentrations of the compounds and then stimulated with LPS for 24 h. Commercially available test kits were used to measure the release of IL1β, TNFα and IL6 in the supernatant after 24 h, and the IC50 for the given compound was determined.

[5] abbreviates: 1 h preincubation, 24 h stimulation, read-out: TNFα release IC50.
Setting [6] is: IL1 β-stimulated human peripheral blood lymphocytes (Table 2).
[7] abbreviates: LPS-stimulated human peripheral blood lymphocytes (Table 1).

Read-outs that look alike come from different tables or passages of the source. A value given as a limit tells only on which side of the number the result lay.

For the compound `c1ccc(-c2nc3c(-c4ccccc4)n[nH]c3c3ccccc23)cc1` [Example 1, 3,5-Diphenyl-1H-pyrazolo[4,3-c]isoquinoline], the IC50 in series [1] (setting [5]) is 5 µM; in series [1] (read-out: IL6 release IC50), 80 µM; in series [3] (setting [5]) it was 1.9 µM; in series [3] (read-out: IL6 release IC50), 80 µM; in series [4] (read-out: IL1β release IC50) it was 33 µM; in series [4] (read-out: IL6 release IC50), above 100 µM. In series [4] (read-out: TNFα release IC50), the half-maximal inhibitory concentration (IC50) came out at 12.5 µM. Further, the “Cytotoxicity LD50” value in series [2] (setting [6]) and in series [2] (setting [7]) was above 100 µM throughout.
Consider `Cc1n[nH]c2c1nc(-c1cccc(O)c1)c1ccccc12` [Example 3, 3-(3-Methyl-1H-pyrazolo[4,3-c]isoquinolin-5-yl)phenol], for which the half-maximal inhibitory concentration (IC50) was 8 µM in series [1] (setting [5]); above 100 µM in series [1] (read-out: IL6 release IC50); 7.5 µM in series [3] (setting [5]); 80 µM in series [3] (read-out: IL6 release IC50); 29 µM in series [4] (read-out: IL1β release IC50); above 100 µM in series [4] (read-out: IL6 release IC50). Further, the IC50 in series [4] (read-out: TNFα release IC50) came to 5 µM. Also, the “Cytotoxicity LD50” value in series [2] (setting [6]) and in series [2] (setting [7]) was above 100 µM each time.
Take `COc1cccc(-c2nc3c(C)n[nH]c3c3ccccc23)c1` [Example 2, 5-(3-Methoxyphenyl)-3-methyl-1H-pyrazolo[4,3-c]isoquinoline]: the half-maximal inhibitory concentration (IC50) in series [1] (setting [5]) was 35 µM; in series [1] (read-out: IL6 release IC50) it was above 100 µM; in series [3] (setting [5]), 9 µM; in series [3] (read-out: IL6 release IC50) it was above 100 µM; in series [4] (read-out: IL1β release IC50), 1.3 µM; in series [4] (read-out: IL6 release IC50) it was 7 µM. The IC50 in series [4] (read-out: TNFα release IC50) amounted to 1.2 µM. Also, the “Cytotoxicity LD50” value in series [2] (setting [6]) and in series [2] (setting [7]) was above 100 µM each time.
